The source of these data is patent publication US10208066B2, “Imidazopyridazine compounds and their use” (HUTCHISON MEDIPHARMA LIMITED, priority 2014, dated 2019).

The target in one series is PI3K-γ (p110γ) (Homo sapiens (Human), UniProt P48736). Description: Transcreener KINASE Assay, fluorescent determination of PI3K enzyme activity. To be noted: for inhibition at 1 µM: read-out: PI3K-γ IH % (inhibition rate). Type of series: biochemical.
The next series relates to SU-DHL-6 cells. The series can be described thus: In vitro cell proliferation assay in SU-DHL-6 cell line (CCK-8). Type of series: cell-based. To be noted: Homo sapiens, SU-DHL-6, 72 h.
A further series concerns the target PI3K-δ (p110δ/p85α) (Homo sapiens (Human), UniProt O00329). Description: Transcreener KINASE Assay, fluorescent determination of PI3K enzyme activity. Type of series: biochemical.
In the next series the target is PI3K-β (Homo sapiens, UniProt P42338). The description is as above. To be noted: for inhibition at 1 µM: read-out: PI3K-β IH % (inhibition rate); for inhibition at 1 µM / PI3K-β IH % (inhibition rate): at 1 μM. Type of series: biochemical.
Chain of PI3K-β (P42338 whole entry, looked up): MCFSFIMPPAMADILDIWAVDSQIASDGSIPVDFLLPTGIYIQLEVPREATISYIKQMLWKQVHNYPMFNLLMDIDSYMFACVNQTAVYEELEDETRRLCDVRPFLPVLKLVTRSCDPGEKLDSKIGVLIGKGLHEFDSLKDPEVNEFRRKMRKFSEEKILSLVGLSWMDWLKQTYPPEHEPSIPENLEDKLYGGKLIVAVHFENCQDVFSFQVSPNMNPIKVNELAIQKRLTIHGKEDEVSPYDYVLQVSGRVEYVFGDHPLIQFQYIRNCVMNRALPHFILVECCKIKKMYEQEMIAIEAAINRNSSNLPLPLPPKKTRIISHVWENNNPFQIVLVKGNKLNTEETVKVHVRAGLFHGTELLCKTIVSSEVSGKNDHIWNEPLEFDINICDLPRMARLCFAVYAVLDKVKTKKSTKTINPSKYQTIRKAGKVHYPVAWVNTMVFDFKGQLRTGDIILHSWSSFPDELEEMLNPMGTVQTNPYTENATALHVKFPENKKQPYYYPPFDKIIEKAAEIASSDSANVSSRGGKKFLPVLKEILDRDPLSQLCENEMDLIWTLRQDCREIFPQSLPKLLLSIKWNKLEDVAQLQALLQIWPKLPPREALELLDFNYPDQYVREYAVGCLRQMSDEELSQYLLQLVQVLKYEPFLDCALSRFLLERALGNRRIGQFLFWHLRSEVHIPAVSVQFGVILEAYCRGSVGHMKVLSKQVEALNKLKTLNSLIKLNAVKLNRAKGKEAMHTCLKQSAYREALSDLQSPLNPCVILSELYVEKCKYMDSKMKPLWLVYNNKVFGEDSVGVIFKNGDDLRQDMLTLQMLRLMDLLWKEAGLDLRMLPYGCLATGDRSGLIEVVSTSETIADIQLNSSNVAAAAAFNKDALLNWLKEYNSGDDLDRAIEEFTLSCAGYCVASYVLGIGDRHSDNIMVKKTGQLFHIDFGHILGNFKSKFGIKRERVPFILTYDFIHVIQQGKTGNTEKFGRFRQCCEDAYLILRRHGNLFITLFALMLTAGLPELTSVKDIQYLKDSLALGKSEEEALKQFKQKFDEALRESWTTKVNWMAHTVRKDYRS
The target in the next series is PI3K-α (p110α/p85α) (Homo sapiens (Human), UniProt P42336). The description is as above. In kind it is biochemical. The conditions noted are these: for inhibition at 1 µM: read-out: PI3K-α IH % (inhibition rate). The protocol: Inhibition rates were calculated as follow: IH %=(ADP amount under 2% DMSO well−ADP amount under test compound well)/ADP amount under 2% DMSO well×100%.
Chain of PI3K-α (p110α/p85α) (P42336 whole entry, species assumed): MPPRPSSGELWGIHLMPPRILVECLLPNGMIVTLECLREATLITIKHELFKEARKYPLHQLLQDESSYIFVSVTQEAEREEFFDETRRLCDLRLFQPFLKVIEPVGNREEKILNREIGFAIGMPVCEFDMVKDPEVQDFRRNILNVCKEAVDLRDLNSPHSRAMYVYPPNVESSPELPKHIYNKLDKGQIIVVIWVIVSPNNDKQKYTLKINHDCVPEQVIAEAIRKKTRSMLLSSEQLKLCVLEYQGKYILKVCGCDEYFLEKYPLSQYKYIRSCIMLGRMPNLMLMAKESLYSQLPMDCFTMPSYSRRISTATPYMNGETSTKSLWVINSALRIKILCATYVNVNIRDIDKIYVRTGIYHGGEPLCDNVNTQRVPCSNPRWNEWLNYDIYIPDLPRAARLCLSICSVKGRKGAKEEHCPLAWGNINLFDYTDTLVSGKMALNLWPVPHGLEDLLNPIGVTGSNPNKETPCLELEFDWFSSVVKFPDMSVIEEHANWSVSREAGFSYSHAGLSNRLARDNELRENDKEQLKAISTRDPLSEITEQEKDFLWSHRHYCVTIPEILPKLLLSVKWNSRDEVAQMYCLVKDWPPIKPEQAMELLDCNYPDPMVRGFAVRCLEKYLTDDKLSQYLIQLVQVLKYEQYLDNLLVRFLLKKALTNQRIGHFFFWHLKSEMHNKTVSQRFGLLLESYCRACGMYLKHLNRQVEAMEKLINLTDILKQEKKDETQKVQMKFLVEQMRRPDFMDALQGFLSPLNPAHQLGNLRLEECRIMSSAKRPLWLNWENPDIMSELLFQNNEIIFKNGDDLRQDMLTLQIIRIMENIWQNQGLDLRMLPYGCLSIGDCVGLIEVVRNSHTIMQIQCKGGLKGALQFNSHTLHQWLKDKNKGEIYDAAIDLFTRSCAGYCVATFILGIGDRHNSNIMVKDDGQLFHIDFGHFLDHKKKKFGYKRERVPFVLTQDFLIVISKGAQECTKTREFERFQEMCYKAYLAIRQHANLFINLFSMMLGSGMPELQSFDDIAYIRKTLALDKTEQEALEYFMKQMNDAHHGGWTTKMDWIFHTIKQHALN
Chain of PI3K-α (p110α/p85α) (P27986 whole entry partner, species assumed): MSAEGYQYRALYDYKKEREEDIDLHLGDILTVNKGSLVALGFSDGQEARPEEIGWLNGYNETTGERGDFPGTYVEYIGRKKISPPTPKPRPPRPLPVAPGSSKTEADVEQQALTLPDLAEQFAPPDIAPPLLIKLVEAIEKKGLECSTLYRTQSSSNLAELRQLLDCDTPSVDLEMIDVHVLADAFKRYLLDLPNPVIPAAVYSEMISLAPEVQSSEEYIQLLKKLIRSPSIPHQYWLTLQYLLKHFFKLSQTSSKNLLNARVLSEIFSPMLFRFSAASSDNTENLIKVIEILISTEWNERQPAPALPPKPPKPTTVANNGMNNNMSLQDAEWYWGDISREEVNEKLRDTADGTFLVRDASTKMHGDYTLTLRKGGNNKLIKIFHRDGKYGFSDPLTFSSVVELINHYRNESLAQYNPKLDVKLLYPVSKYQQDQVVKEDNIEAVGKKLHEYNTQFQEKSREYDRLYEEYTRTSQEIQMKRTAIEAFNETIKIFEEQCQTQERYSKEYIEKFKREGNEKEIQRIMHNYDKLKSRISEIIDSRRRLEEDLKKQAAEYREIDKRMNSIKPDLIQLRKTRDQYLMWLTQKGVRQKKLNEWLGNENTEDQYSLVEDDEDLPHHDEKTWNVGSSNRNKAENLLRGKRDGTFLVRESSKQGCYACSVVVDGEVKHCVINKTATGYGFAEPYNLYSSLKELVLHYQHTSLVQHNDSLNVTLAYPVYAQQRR

Series [1] deals with PI3Kδ signaling in basophils. Description: Inhibition of PI3Kδ signaling in basophils from human whole blood. In kind it is cell-based. The conditions noted are these: human whole blood, anti-human IgE stimulation, CD63; read-out: IC50, inhibition of PI3Kδ signaling in basophils.
Experimental: Methods • 1) Heparinized human whole blood was mixed and pipetted into the 96 well v-bottom plate, 100 μL per well. • 2) 10 μL of stimulation buffer (1 mg/mL stock, final concentration of Recombinant human IL-3: 20 ng/mL) was added to the whole blood samples of each well and vortex gently. […] Vortex all the wells once more and incubate for 20 min at 37° C. • 5) Labeling with staining antibody: Degranulation was stopped by incubating the samples on ice for 5 min. 6 μL of staining antibody mixture (anti-CD63-FITC and anti-IgE-PE) was added into each well. Vortex and incubate the wells for 20 min in an ice bath, covered to prevent exposure to light. • 6) The whole blood samples were lysed with 300 uL RBC lysis (pre-warmed to room temperature, 20 to 25° C.). Vortex and incubate the samples for 15 min at room temperature. Spin down cells (5 min, 250×g, 4° C.). The supernatant was aspirated leaving approximately 100 μL in each well. • 7) The blood samples were lysed once more as step 6). • 8) Washing: The samples are washed once with 0.5 mL of washing solution. The plate was centrifuged (5 min, 250×g, 4° C.). The supernatant was aspirated leaving approximately 100 μL in each well. The sample in each well was washed and centrifuged once more as above. • 9) 200 μL of fixing solution (1% papraledehyde in 1% BSA/PBS) was added into each well.
(§2) Data was analyzed and IC50 values were generated using the add-in software for Microsoft Excel, Xlfit™ (version 5.3).
Series [2] relates to AKT phosphorylation (p-AKT Ser473) in Ramos cells. Description: Inhibition of AKT phosphorylation in Ramos cell line (anti-IgM stimulated). In kind it is cell-based. The conditions noted are these: Homo sapiens; Ramos cells, anti-IgM stimulation; read-out: IC50, inhibition of AKT phosphorylation.
Experimental: 6×10^4/mL Ramos cells (ATCC, CRL-1596; cells were cultured in RPMI1640 media with 10% FBS) were seeded into a 96-well plate (Beckman Dickinson, No. 356692) at 80 uL/well, 4,800 cells/well. After incubation for 3 hr at 37° C. under 5% CO2, Ramos cells were treated with 10 uL/well various concentrations of test compound (final concentrations of the test compound: 1 uM, 0.3 uM, 0.1 uM, 0.037 uM, 0.012 uM, 0.0041 uM, 0.0014 uM and 0.0005 uM) or 0.3% DMSO for 30 min, and then were stimulated with 10 uL/well 1 ug/ml Anti-IgM (Jackson Immunoresearch, 709-006-073) for 15-20 min. • 1) Cells were fixed with 100 μL of 4% pre-warmed Paraformaldehyde (2% final concentration), and incubated for 45 min at room temperature. • 2) The paraformaldehyde solution was removed. 100 μL of ice-cold methanol was added into each well and the plate was left at 4° C. for 30 min. • 3) The cells were washed for three times with 160 μL PBS. • 4) 40 μL 1:350 dilution of Rabbit anti-p-AKT(Ser^473) antibody (Cell Signaling Technology, 4060L) in antibody dilution buffer (1% BSA, in PBS) were added into each well. The plate was inculpated overnight at 4° C. • 5) The cells were washed for 3 times with 160 uL PBS. • 6) 45 μL of Goat anti-rabbit IgG Alexa488 antibody (Invitrogen, A11034) at a 1:1,000 dilution in antibody dilution buffer (1% BSA, in PBS) were added into each well. The plate was covered with foil to keep out of light and was incubated for 90 min at room temperature. • 7) The cells were washed for 3 times with 160 uL PBS. • 8) 50 μL of 1.5 μM Propidium Iodide (Sigma: P4170) solution was added into each well to determine cell number (1.5 mM Propidium iodide stock was diluted with 1:1,000 in PBS, and the final concentration was 1.5 μM). • 9) The plate was incubated at room temperature for 30 min and then was sealed with a cover-seal. • 10) The plate was loaded into the Acumen Explorer and scan with the appropriate instrument settings.
as §2
Series [3] has as its system B cells (B220+) activation (CD86). Description: Anti-IgD antibody induced B cells activation in rat whole blood, ex vivo after oral administration. The arrangement: species or system Wistar rats. The protocol:
Activation of B cells (B220+) in rat whole, blood with anti-IgD antibody leading to activation via Ig receptors is known to involve PI3K pathways and sensitive to modulation by PI3Kδ inhibitors, A pharmacodynamics assay was developed to assess activity of PI3Kδ inhibitors ex vivo following oral administration of inhibitors to rats.
(§1) Wistar rats (female, 6-8 weeks old) were used in the experiments. The dose dependency, time course study and PKPD relationship of compound 4 were conducted in normal Wistar rats. […] The control group (6 rats) was treated with the vehicle alone. At designated time points (1 hour, 8 hours, 16 hours and 24 hours after administration), blood samples were collected from rats via retro-orbital bleeding under isofluorane anesthesia into heparinized tubes. The heparin anti-coagulated blood was mixed with anti-rat-IgD, then was incubated at 37° C. under 5% CO2 overnight. Fluorescence signal for CD86 on B220 (B cells) positive cells was detected using a flow cytometer (BD FACSCalibur, BD Biosciences) and data were analyzed by CellQuest software. Plasma was collected to measure compound 4 levels.

In series [4] the test system is collagen-induced arthritis, paw volume. The series can be described thus: Rat collagen II induced arthritis (CIA) model. In kind it is in vivo, Wistar rats. The protocol: Rat collagen induced arthritis is an experimental model of polyarthritis that has been widely used for nonclinical testing of numerous anti-arthritic agents that are either under nonclinical or clinical investigation or are currently used as therapeutics in this disease. […] Wistar rats were immunized intradermally with 200 μg bovine collagen H emulsified in Freund's incomplete adjuvant (IFA, Sigma. US) on day 0 and day 7. The hind paw volumes were measured before and after the immunization. […] The naive group was not administered. YiSaiPu (10 mg/kg), a human tumor necrosis factor receptor p75 Fc fusion protein, was administered with intraperitoneal injection on days 10, 12 and 14 as a positive control. The study was terminated on day 18.

Series [5] is described as follows: Plasma levels of compound 4 after oral administration. In kind it is in vivo, Wistar rats. The conditions noted are these: dose range 0.01 mg/kg to 3 mg/kg. The protocol: as §1

pIC50: −log10 of the molar value.
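Wherever PI3K-β IH % (inhibition rate) is given: recombinant PI3K enzyme reaction, 80 min at room temperature, ADP formed detected by far-red competitive fluorescence polarization immunoassay, inhibition relative to ADP in 2% DMSO control wells.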
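Wherever PI3K-γ IH % (inhibition rate) is given: ADP produced by p110γ kinase reaction, 80 min at room temperature, detected by far-red fluorescence polarization immunoassay, inhibition relative to 2% DMSO control wells.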

Chain of PI3K-δ (p110δ/p85α) (O00329 whole entry, species assumed): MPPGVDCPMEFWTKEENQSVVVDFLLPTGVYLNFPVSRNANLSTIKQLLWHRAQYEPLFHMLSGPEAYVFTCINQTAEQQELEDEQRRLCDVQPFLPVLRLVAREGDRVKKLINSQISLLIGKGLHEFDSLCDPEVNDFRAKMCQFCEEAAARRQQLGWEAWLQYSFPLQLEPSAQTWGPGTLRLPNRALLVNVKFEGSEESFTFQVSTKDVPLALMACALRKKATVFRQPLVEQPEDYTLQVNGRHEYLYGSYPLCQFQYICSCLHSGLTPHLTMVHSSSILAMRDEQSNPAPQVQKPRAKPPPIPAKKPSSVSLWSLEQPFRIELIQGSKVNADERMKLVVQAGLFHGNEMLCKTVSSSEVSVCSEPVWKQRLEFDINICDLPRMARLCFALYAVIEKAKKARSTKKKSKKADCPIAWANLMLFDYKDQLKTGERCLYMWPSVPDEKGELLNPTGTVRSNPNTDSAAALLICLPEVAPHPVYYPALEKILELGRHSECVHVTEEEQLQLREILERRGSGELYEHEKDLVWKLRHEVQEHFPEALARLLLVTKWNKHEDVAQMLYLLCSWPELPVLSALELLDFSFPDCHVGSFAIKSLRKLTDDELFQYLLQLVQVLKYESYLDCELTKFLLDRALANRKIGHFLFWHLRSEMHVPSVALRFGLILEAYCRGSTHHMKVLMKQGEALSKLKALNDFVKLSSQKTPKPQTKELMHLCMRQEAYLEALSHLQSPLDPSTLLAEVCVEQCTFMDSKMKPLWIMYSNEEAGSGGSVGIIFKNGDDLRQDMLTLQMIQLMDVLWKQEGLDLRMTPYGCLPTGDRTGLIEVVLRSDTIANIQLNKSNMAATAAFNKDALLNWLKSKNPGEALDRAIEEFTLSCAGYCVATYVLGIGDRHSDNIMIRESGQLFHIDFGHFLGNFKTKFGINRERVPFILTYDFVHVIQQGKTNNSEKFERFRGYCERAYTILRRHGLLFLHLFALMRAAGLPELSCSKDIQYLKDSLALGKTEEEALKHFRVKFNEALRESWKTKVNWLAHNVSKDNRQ
Chain of PI3K-δ (p110δ/p85α) (P27986 whole entry partner, species assumed): as the sequence (P27986 whole entry partner, species assumed) above
Chain of PI3K-γ (p110γ) (P48736 whole entry, species assumed): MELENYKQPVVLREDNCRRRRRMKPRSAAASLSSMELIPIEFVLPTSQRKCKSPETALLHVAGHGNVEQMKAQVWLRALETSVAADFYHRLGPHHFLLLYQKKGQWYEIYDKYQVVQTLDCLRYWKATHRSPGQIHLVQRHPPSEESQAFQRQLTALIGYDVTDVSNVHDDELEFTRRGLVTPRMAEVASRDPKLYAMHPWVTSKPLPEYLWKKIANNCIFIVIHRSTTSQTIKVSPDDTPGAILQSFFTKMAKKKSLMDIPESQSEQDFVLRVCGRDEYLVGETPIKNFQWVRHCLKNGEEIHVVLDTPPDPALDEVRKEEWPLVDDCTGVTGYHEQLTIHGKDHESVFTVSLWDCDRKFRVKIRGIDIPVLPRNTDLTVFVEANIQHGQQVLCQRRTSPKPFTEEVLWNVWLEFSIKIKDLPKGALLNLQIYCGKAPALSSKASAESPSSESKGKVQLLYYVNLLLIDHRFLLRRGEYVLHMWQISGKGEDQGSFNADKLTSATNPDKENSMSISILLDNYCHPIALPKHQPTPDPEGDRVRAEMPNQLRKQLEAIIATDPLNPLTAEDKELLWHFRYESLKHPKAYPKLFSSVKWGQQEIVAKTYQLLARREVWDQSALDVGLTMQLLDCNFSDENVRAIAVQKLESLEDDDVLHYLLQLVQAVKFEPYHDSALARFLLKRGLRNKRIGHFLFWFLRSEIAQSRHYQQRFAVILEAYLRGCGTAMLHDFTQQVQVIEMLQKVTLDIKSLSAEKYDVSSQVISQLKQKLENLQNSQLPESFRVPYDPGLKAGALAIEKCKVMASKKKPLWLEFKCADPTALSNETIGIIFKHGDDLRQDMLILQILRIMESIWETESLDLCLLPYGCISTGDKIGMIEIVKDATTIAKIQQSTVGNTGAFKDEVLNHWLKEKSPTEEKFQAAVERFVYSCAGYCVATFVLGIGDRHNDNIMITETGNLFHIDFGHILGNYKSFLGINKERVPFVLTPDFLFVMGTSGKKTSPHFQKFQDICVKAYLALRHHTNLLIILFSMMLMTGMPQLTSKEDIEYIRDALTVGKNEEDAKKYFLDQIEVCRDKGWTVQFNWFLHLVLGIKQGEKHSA
Experimental for PI3K-β: (§3) It is a universal, homogenous, high throughput screening (HTS) technology using a far-red, competitive fluorescence polarization immunoassay based on the detection of ADP to monitor the activity of enzymes that catalyze group transfer reactions. […] The reaction mixture was added into desired wells of a 96-well plate. The plate was sealed and incubated for 80 min at room temperature. • 2) Next, 25 uL ADP detection mix was added into each well. The plate was sealed again and incubated for 60 min at room temperature. Then fluorescence polarization was measured by Tecan Infinite F500 Reader.
as §2
Experimental for PI3K-γ (p110γ): as §3, §2
Experimental for PI3K-δ (p110δ/p85α): as §3, §2
Experimental for SU-DHL-6 cells: Growth inhibition assays were carried out using 10% FBS supplemented media. Cells were seeded at a concentration of 15000 cells/well in a 96 well plate. Test compound dilution at different concentrations (final concentrations of the test compound: 1 uM, 0.3 uM, 0.1 uM, 0.037 uM, 0.012 uM, 0.0041 uM, 0.0014 uM and 0.0005 uM) were added after 24 hours. Growth was assessed using Cell Counting Kit-8 (CCK-8) (Dojindo, Cat#CK04) after the test compound were incubated for 72 h. Absorbance was read at the wave length 450 nm on Multiskan MK3 machine (Thermo).
as §2

For the molecule `CCC(Nc1ncnc(N)c1C#N)c1cc2ncc(Cl)n2nc1-c1ccccn1` (stereo not shown) [Compound 29], the “PI3K-γ IH % (inhibition rate)” value on PI3K-γ (p110γ) (at 1 μM) is given as 35%. Moreover, the pIC50 (commonly the negative decadic logarithm of the IC50, by convention in mol/L) in the series on SU-DHL-6 cells was 7.96; at PI3K-δ (p110δ/p85α), 8.52; against PI3K-β, 6.76.

Turning to `CCC(Nc1ncnc(N)c1C#N)c1cc2ncc(Cl)n2nc1-c1ccccc1F` (stereo not shown) [Compound 19], the pIC50 at PI3K-γ (p110γ) is 5.71; in the series on SU-DHL-6 cells, 7.64; on PI3K-δ (p110δ/p85α) it was 8.70; on PI3K-β it was 5.97; against PI3K-α (p110α/p85α), less than 6.00; in series [1], 7.80.

On to `CCC(Nc1ncnc(N)c1C#N)c1cc2ncc(Cl)n2nc1-c1cccc(F)c1` (stereo not shown) [Compound 24], for which the pIC50 was 8.15 in series [2], 7.96 in the series on SU-DHL-6 cells, 8.70 against PI3K-δ (p110δ/p85α) and 7.96 in series [1]. Moreover, the inhibition (commonly the relative decrease from the control value, in per cent) at 1 µM on PI3K-γ (p110γ) (at 1 μM) amounted to 44.5%; on PI3K-β it was 46.6%.

On to `C[C@H](Nc1ncnc2[nH]cnc12)c1cc2ncc(Cl)n2nc1-c1cccc(F)c1` [Compound 16], for which the results for the pIC50 against PI3K-γ (p110γ), against PI3K-δ (p110δ/p85α) and on PI3K-α (p110α/p85α) were 6.49, 8.52 and less than 6.00, respectively. For the same molecule, the inhibition at 1 µM at PI3K-β was 27.5%.

Regarding `C[C@H](Nc1ncnc2[nH]ccc12)c1cc2ncc(Cl)n2nc1-c1ccccc1` [Compound 17], the inhibition at 1 µM on PI3K-γ (p110γ) (at 1 μM) was determined as 61.2%; on PI3K-β, 15.8%. For the same molecule, the pIC50 in the series with SU-DHL-6 cells is 6.76; against PI3K-δ (p110δ/p85α), 7.59; against PI3K-α (p110α/p85α), less than 6.00; in [1], 6.21.

Turning to `C[C@H](Nc1ncnc(N)c1C#N)c1cc2ncc(Cl)n2nc1-c1ccccc1` [Compound 4, (S)-4-amino-6-((1-(3-chloro-6-phenylimidazo[1,2-b]pyridazin-7-yl)ethyl)amino)pyrimidine-5-carbonitrile], the values for the pIC50 (in series [2]; against PI3K-α (p110α/p85α)) were 8.70 and less than 6.00, respectively. Further, in [3] (Rattus norvegicus, B-cell, at 2 hr post-dose, oral), the median effective dose (ED50) (usually the midpoint of the dose-response relation) is less than 0.01 mg/kg. For the same molecule, the inhibition at 0.1 mg/kg in series [3] (Rattus norvegicus, B-cell, single oral 0.1 mg/kg dose, up to 24 hr) was greater than 90%. For the same molecule, the “anti-IgD induced B cell activation in rat whole blood, ex vivo” value in series [3] (oral, dose range 0.01 to 3 mg/kg, p<0.01) is recorded as “inhibited anti-IgD induced B cell activation”. Also, the “mean paw volume at end of treatment vs vehicle-treated diseased animals” value in [4] (PO QD 7 days, p<0.01 except at lowest dose 0.03 mg/kg) was “significantly decreased”. Besides, in series [4] (daily oral treatment), the “effects on parameters associated with established type II collagen-induced arthritis” value is “dose-dependent beneficial effects”. The Plasma levels entry in [5] is recorded as “dose-proportional”.

With `CCC(Nc1ncnc2[nH]cnc12)c1cc2ncc(Cl)n2nc1-c1ccccc1` (stereo not shown) [Compound 18], the negative-log IC50 (pIC50) against PI3K-γ (p110γ) is 6.21; in the series with SU-DHL-6 cells, 7.59; at PI3K-δ (p110δ/p85α), 8.40; at PI3K-α (p110α/p85α) it was less than 6.00; in series [1] it was 7.06. Also, at PI3K-β, the “PI3K-β IH % (inhibition rate)” value stood at 42%.

With `C[C@@H](c1cc2ncc(Cl)n2nc1-c1ccccc1)n1cnc2c(N)ncnc21` [Compound 20, (S)-9-(1-(3-chloro-6-phenylimidazo[1,2-b]pyridazin-7-yl)ethyl)-9H-purin-6-amine], the inhibition at 1 µM came to 43.1% at PI3K-γ (p110γ) (at 1 μM) and 17.4% at PI3K-β. The negative logarithm of the IC50 (pIC50) in the series on SU-DHL-6 cells was 6.58; at PI3K-δ (p110δ/p85α), 7.14; on PI3K-α (p110α/p85α), less than 6.00; in series [1] it was 6.40.

With `Cc1cnc2cc([C@H](C)Nc3ncnc(N)c3C#N)c(-c3ccccc3)nn12` [Compound 22], the pIC50 in series [2] was 8.40; at PI3K-γ (p110γ) it was 6.49; with SU-DHL-6 cells, 7.72; at PI3K-δ (p110δ/p85α), 8.70; in [1], 8.70. Also, the inhibition at 1 µM at PI3K-β worked out at 76.7%; on PI3K-α (p110α/p85α), 13.6%.

Turning to `C[C@H](Nc1ncnc2[nH]cnc12)c1cc2ncc(Cl)n2nc1-c1ccccc1F` [Compound 13], the negative logarithm of the IC50 (pIC50) in [2] is 8.40; at PI3K-γ (p110γ), 6.32; in the series with SU-DHL-6 cells, 7.96; on PI3K-δ (p110δ/p85α), 8.52; against PI3K-β, 5.72; at PI3K-α (p110α/p85α) it was less than 6.00. The negative-log IC50 (pIC50) in series [1] is 8.00.

Turning to `Cc1cnc2cc([C@H](C)Nc3ncnc4[nH]cnc34)c(-c3ccccc3)nn12` [Compound 23], the negative logarithm of the IC50 (pIC50) in series [2] was 7.92; on PI3K-γ (p110γ), 6.46; in the series with SU-DHL-6 cells, 7.11; against PI3K-δ (p110δ/p85α), 8.22; in series [1], 8.22. Besides, the inhibition at 1 µM came to 28.7% at PI3K-β and 3.2% on PI3K-α (p110α/p85α).

Take `CC[C@H](Nc1ncnc(N)c1C#N)c1cc2ncc(Cl)n2nc1-c1ccccc1` [Compound 6, (S)-4-amino-6-((1-(3-chloro-6-phenylimidazo[1,2-b]pyridazin-7-yl)propyl)amino)pyrimidine-5-carbonitrile]: the pIC50 in series [2] was 9.52; in the series with SU-DHL-6 cells it was 8.52; at PI3K-δ (p110δ/p85α), 9.00; on PI3K-β it was 6.52; at PI3K-α (p110α/p85α), less than 6.00; in series [1] it was 8.22. The inhibition at 1 µM on PI3K-γ (p110γ) (at 1 μM) was found to be 61.1%.

Turning to `CCC(Nc1ncnc2[nH]cnc12)c1cc2ncc(Cl)n2nc1-c1ccccc1F` (single isomer, unassigned) [Compound 25], the figures for the pIC50 (in series [2]; in the series with SU-DHL-6 cells; in series [1]) were 8.30, 7.49 and 7.43, respectively. Moreover, at PI3K-β, the “PI3K-β IH % (inhibition rate)” value stood at 22.8%.

With `C[C@H](Nc1ncnc(N)c1C#N)c1cc2ncc(Cl)n2nc1-c1cccc(F)c1` [Compound 15], the negative-log IC50 (pIC50) was 9.30 in series [2]; 6.41 against PI3K-γ (p110γ); 8.70 in the series on SU-DHL-6 cells; 9.00 on PI3K-δ (p110δ/p85α); less than 6.00 against PI3K-α (p110α/p85α); 8.70 in [1]. Also, the inhibition at 1 µM at PI3K-β is 59%.

On to `C[C@H](Nc1ncnc(N)c1C#N)c1cc2ncc(Cl)n2nc1-c1ccccn1` [Compound 8, (S)-4-amino-6-((1-(3-chloro-6-(pyridin-2-yl)imidazo[1,2-b]pyridazin-7-yl)ethyl)amino)pyrimidine-5-carbonitrile], for which the inhibition at 1 µM at PI3K-γ (p110γ) (at 1 μM) was -1.4%; at PI3K-β, 37.7%. Further, the pIC50 with SU-DHL-6 cells was 7.51; on PI3K-δ (p110δ/p85α), 8.00; at PI3K-α (p110α/p85α), less than 6.00; in series [1], 8.05.
